The record followed here is US20260265249A1, “PHARMACEUTICALLY ACCEPTABLE SALT AND CRYSTAL FORM OF 1,4-DIHYDRO-1,6-NAPHTHYRIDINE AMIDE COMPOUND AND PREPARATION METHOD THEREFOR” (JIANGSU HENGRUI PHARMACEUTICALS CO., LTD., priority 2023, published 2026).

Data set [1] relates to db/db mice (idiopathic type II diabetes model mice). In words: Efficacy test in db/db mouse model with diabetic nephropathy. The format is in vivo. Conditions: for mALB compared to the model control group / urine albumin-to-creatinine ratio (UACR) compared to the model control group / urine amount compared to the model control group: after 4 weeks of administration, in words; for UACR / Urine creatinine / Urine weight / mALB: db/db mice, 15 mg/kg i.g. once daily, Mean±SEM. The text has this: Test Example 2: Efficacy Test in db/db Mouse Model with Diabetic Nephropathy
Thirty db/db mice (idiopathic type II diabetes model mice) were selected and divided into a model control group, a positive control group, and a treatment group, and 10 db/m mice were selected as a control group.
The mice were given the compounds by oral gavage (i.g) once daily over 4 consecutive weeks. The administration information is shown in detail in Table 2.
Urine albumin was used as a main measure. The data obtained were analyzed statistically using EXCEL and IBM SPSS Statistics 22.0.
All metrology data are expressed as Mean±SEM s. The parameters before and after administration were plotted for the different groups of animals using the software Graph Pad Prism 8. Data were analyzed using the statistical software SPSS 22.0. A Levene's test of homogeneity of variance was performed on the parameters. When the variance was homogenous (P≥0.05), the Dunnett's & LSD method from the one-way analysis of variance (ANOVA) was used to compare the differences between the groups. When the variance was not homogenous (P<0.05), the Mann-Whitney U test (the M-W method) from the Kruskal-Wallis H test (the K-W method) was used to compare the differences between the groups. For animal survival, the log-rank test from the product-limit method (the K-M method) was used to compare the differences between the groups.

Data set [2] can be described thus: DVS (dynamic vapor sorption) hygroscopicity test. The format is physicochemical. The text has this:
According to the description of hygroscopicity characteristics and the definitions of hygroscopic weight gains in “General Rule 9103, Guidelines for Hygroscopicity” in the Chinese Pharmacopoeia, Volume IV, 2015 Edition, • deliquescent: sufficient water is absorbed to form a liquid; • extremely hygroscopic: the hygroscopic weight gain is not less than 15%; • hygroscopic: the hygroscopic weight gain is less than 15% but not less than 2%; • slightly hygroscopic: the hygroscopic weight gain is less than 2% but not less than 0.2%; • nonhygroscopic or practically nonhygroscopic: the hygroscopic weight gain is less than 0.2%.
TGA refers to thermogravimetric analysis: The analysis was performed using a METTLER TOLEDO TGA 2 thermogravimetric analyzer, with a temperature ramp rate of 10° C./min, specific temperature ranges shown in corresponding patterns (mostly 30-350° C.), and a nitrogen purge speed of 50 mL/min. DVS refers to dynamic vapor sorption: The analysis was performed using SMS DVS Advantage; at 25° C., the humidity was changed as follows: 50%-95%-0%-95%-50%, in steps of 10% (5% for the last step) (specific humidity ranges are shown in corresponding patterns, and those listed here were used in most cases); the criterion was dm/dt being not greater than 0.002%.

Data set [3] is described as follows: Long-term/accelerated stability study (sealed in aluminum foil bags, 25° C./60% RH and 40° C./75% RH). The format is physicochemical. The following applies: for long-term/accelerated stability (conclusion): storage under long-term accelerated conditions for 6 months.
Data set [4] can be described thus: Influencing factor stability study (open containers; light, high temperature, high humidity; 30 days). The format is physicochemical.
The mark [5] stands for this setting: 4 weeks, ** P<0.01 vs model control group.
The mark [6] stands for this setting: 25° C.-60% RH, sealed aluminum foil bag, 1 month.
The mark [7] stands for this setting: 25° C.-60% RH, sealed aluminum foil bag, 2 months.
The mark [8] stands for this setting: 25° C.-60% RH, sealed aluminum foil bag, 3 months.
[9] abbreviates: 25° C.-60% RH, sealed aluminum foil bag, 6 months.
The mark [10] stands for this setting: 40° C.-75% RH, sealed aluminum foil bag, 1 month.
Setting [11] is: 40° C.-75% RH, sealed aluminum foil bag, 2 months.
[12] abbreviates: 40° C.-75% RH, sealed aluminum foil bag, 3 months.
[13] abbreviates: 40° C.-75% RH, sealed aluminum foil bag, 6 months.
[14] abbreviates: open container, 40° C., 1 month.
Setting [15] is: open container, 40° C., 14 days.
The mark [16] stands for this setting: open container, 60° C., 1 month.
The mark [17] stands for this setting: open container, 60° C., 14 days.
Where [18] appears, read: open container, 75% RH, 1 month.
The mark [19] stands for this setting: open container, 75% RH, 14 days.
Where [20] appears, read: open container, 92.5% RH, 1 month.
Setting [21] is: open container, 92.5% RH, 7 days.
Where [22] appears, read: open container, 92.5% RH, 14 days.
The mark [23] stands for this setting: open container, light exposure (4500 Lux), 1 month.
Setting [24] is: open container, light exposure (4500 Lux), 7 days.
[25] abbreviates: open container, light exposure (4500 Lux), 14 days.

For `CCOc1ncc(C)c2c1[C@H](c1ccc(C#N)cc1OC)C(C(N)=O)=C(C)N2` [Finerenone, reference compound], in data set [1], the “mALB compared to the model control group” value is on record as “tended to be lower”, the “urine albumin-to-creatinine ratio (UACR) compared to the model control group” value is “decreased somewhat but is not significantly different” and the “urine amount compared to the model control group” value is given as “tended to be lower”. In data set [1] (0 weeks), this molecule came in with a UACR of 5538.19 ± 342.61 µg/mg, a Urine creatinine of 0.37 ± 0.02 μmol/24 h, a Urine weight of 2.86 ± 0.17 mL and a mALB of 226.68 ± 13.90 μg/24 h. Moreover, in data set [1] (4 weeks), the Urine creatinine stood at 2.11 ± 0.44 μmol/24 h, the Urine weight is listed as 11.96 ± 2.89 mL and the mALB was 1,013.76 ± 245.40 μg/24 h. The UACR in data set [1] (setting [5]) worked out at 4294.14 ± 464.95 µg/mg.

Take `[2H]C([2H])([2H])Oc1cc(C#N)ccc1[C@@H]1C(C(N)=O)=C(C)Nc2c(C)cnc(OCC)c21` [Compound 1]: in data set [1], the “mALB compared to the model control group” value was “tended to be lower”, the “urine albumin-to-creatinine ratio (UACR) compared to the model control group” value is reported as “statistically significantly smaller” and the “urine amount compared to the model control group” value is “tended to be lower”. In data set [1] (0 weeks), this molecule gave a UACR of 5039.91 ± 334.27 µg/mg, a Urine creatinine of 0.40 ± 0.01 μmol/24 h, a Urine weight of 2.72 ± 0.14 mL and a mALB of 224.72 ± 13.19 μg/24 h. For the same molecule, in data set [1] (4 weeks), the Urine creatinine is reported as 2.23 ± 0.39 μmol/24 h, the Urine weight was determined as 10.41 ± 2.29 mL and the mALB is listed as 870.27 ± 189.40 μg/24 h. Besides, the UACR in data set [1] (setting [5]) is 3301.13 ± 330.31** μg/mg.

On to `Cl.[2H]C([2H])([2H])Oc1cc(C#N)ccc1[C@@H]1C(C(N)=O)=C(C)Nc2c(C)cnc(OCC)c21` [crystal form I of hydrochloride], for which the hygroscopic weight gain entry is given as “about 13.7%” in data set [2] (accelerated experimental conditions, 70% RH); “about 37.5%” in data set [2] (extreme conditions, 90% RH); “about 3.6%” in data set [2] (normal storage conditions, 25° C. and 60% RH). Further, the “crystal form re-identified after the DVS test” value in data set [2] (after DVS test) is listed as “did not change”. Moreover, the “Purity (%)” value was 99.8% in data set [3] (0 days (initial)); 99.3% in data set [3] (setting [6]); 99.3% in data set [3] (setting [7]); 99.3% in data set [3] (setting [8]); 99.3% in data set [3] (setting [9]); 99.2% in data set [3] (setting [10]). Besides, the “Purity (%)” value in data set [3] (setting [11]) came out at 98.9%; in data set [3] (setting [12]), 98.8%; in data set [3] (setting [13]) it was 98.8%. The Crystal form result in data set [3] (setting [6]), in data set [3] (setting [7]), in data set [3] (setting [8]), in data set [3] (setting [9]), in data set [3] (setting [10]) and in data set [3] (setting [11]) was “No change” in each case. Further, the Crystal form result in data set [3] (setting [12]) and in data set [3] (setting [13]) was “No change” each time. Also, in data set [3], the “long-term/accelerated stability (conclusion)” value was “good physical and chemical stability”.

Consider `O=C(O)/C=C\C(=O)O.[2H]C([2H])([2H])Oc1cc(C#N)ccc1[C@@H]1C(C(N)=O)=C(C)Nc2c(C)cnc(OCC)c21` [crystal form α of maleate], for which the Crystal form entry in data set [4] (0 days) is given as “Crystal form α of maleate”; in data set [4] (setting [14]) it was “No change”; in data set [4] (open container, 40° C., 7 days), “No change”; in data set [4] (setting [15]), “No change”; in data set [4] (setting [16]), “No change”; in data set [4] (open container, 60° C., 7 days), “No change”. The Crystal form entry in data set [4] (setting [17]) is “No change”; in data set [4] (setting [18]), “No change”; in data set [4] (open container, 75% RH, 7 days), “No change”; in data set [4] (setting [19]) it was “No change”; in data set [4] (setting [20]) it was “No change”; in data set [4] (setting [21]), “No change”. Further, the Crystal form entry in data set [4] (setting [22]), in data set [4] (setting [23]), in data set [4] (setting [24]), in data set [4] (setting [25]), in data set [3] (setting [6]) and in data set [3] (setting [7]) was “No change” each time. Further, the Crystal form entry in data set [3] (setting [8]), in data set [3] (setting [9]), in data set [3] (setting [10]), in data set [3] (setting [11]), in data set [3] (setting [12]) and in data set [3] (setting [13]) was “No change” throughout. Moreover, the Purity in data set [4] (0 days) worked out at 99.6%; in data set [4] (setting [14]), 97.4%; in data set [4] (open container, 40° C., 7 days), 98.9%; in data set [4] (setting [15]) it was 98.4%; in data set [4] (setting [16]), 92.2%; in data set [4] (open container, 60° C., 7 days) it was 98.6%. Also, the Purity in data set [4] (setting [17]) is given as 97.0%; in data set [4] (setting [18]), 99.8%; in data set [4] (open container, 75% RH, 7 days), 99.8%; in data set [4] (setting [19]), 99.8%; in data set [4] (setting [20]), 99.8%; in data set [4] (setting [21]) it was 99.8%. Besides, the Purity in data set [4] (setting [22]) is listed as 99.8%; in data set [4] (setting [23]), 98.2%; in data set [4] (setting [24]), 99.2%; in data set [4] (setting [25]) it was 98.7%. Moreover, the “stability in the influencing factor experiments (conclusion)” value in data set [4] (at a high temperature) is recorded as “slightly degraded”. The “Purity (%)” value was 99.6% in data set [3] (0 days (initial)); 99.8% in data set [3] (setting [6]); 99.8% in data set [3] (setting [7]); 99.8% in data set [3] (setting [8]); 99.6% in data set [3] (setting [9]); 99.6% in data set [3] (setting [10]). The “Purity (%)” value turned out to be 99.5% in data set [3] (setting [11]), 99.3% in data set [3] (setting [12]) and 98.8% in data set [3] (setting [13]). Besides, the “long-term/accelerated stability (conclusion)” value in data set [3] is “good physical and chemical stability”.
